Source: PubChem BioAssay (NCI)
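Where inhibition never reached the appropriate level, the endpoint shown equals the highest concentration tested. Otherwise, values were interpolated linearly from a five-concentration, 48-hour dose response in 96-well plates. GI50: concentration for 50% inhibition of growth. Definition used: TGI = concentration required for complete inhibition of growth.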

Tests used:
Assay in all cases: inhibition of tumour cell growth, NCI panel, 48 h
OVCAR-5 ovarian = system: OVCAR-5 ovarian
HCT-116 colon = system: HCT-116 colon
SK-OV-3 ovarian = system: SK-OV-3 ovarian
SK-MEL-2 melanoma = system: SK-MEL-2 melanoma
KM12 colon = system: KM12 colon
NCI-H460 lung = system: NCI-H460 lung
OVCAR-4 ovarian = system: OVCAR-4 ovarian
DU-145 prostate = system: DU-145 prostate
SF-295 CNS = system: SF-295 CNS
UACC-62 melanoma = system: UACC-62 melanoma
A498 renal = system: A498 renal
COLO 205 colon = system: COLO 205 colon
EKVX NSCLC = system: EKVX NSCLC
TK-10 renal = system: TK-10 renal
SN12C renal = system: SN12C renal
SF-539 CNS = system: SF-539 CNS
786-0 renal = system: 786-0 renal
LOX IMVI melanoma = system: LOX IMVI melanoma
A549 NSCLC = system: A549 NSCLC
HS 578T breast = system: HS 578T breast
T-47D breast = system: T-47D breast
K-562 leukemia = system: K-562 leukemia
SK-MEL-28 melanoma = system: SK-MEL-28 melanoma
HOP-62 NSCLC = system: HOP-62 NSCLC
SNB-75 CNS = system: SNB-75 CNS
IGROV1 ovarian = system: IGROV1 ovarian
MALME-3M melanoma = system: MALME-3M melanoma
SNB-19 CNS = system: SNB-19 CNS
PC-3 prostate = system: PC-3 prostate
HCC-2998 colon = system: HCC-2998 colon
HT29 colon = system: HT29 colon
HL-60(TB) leukemia = system: HL-60(TB) leukemia
BT-549 breast = system: BT-549 breast
SF-268 CNS = system: SF-268 CNS
NCI/ADR-RES ovarian = system: NCI/ADR-RES ovarian
OVCAR-8 ovarian = system: OVCAR-8 ovarian
HOP-92 NSCLC = system: HOP-92 NSCLC
ACHN renal = system: ACHN renal
NCI-H226 lung = system: NCI-H226 lung
CAKI-1 renal = system: CAKI-1 renal
MDA-MB-435 = system: MDA-MB-435
U251 CNS = system: U251 CNS
SK-MEL-5 melanoma = system: SK-MEL-5 melanoma
NCI-H522 lung = system: NCI-H522 lung
MOLT-4 leukemia = system: MOLT-4 leukemia
HCT-15 colon = system: HCT-15 colon
SW-620 colon = system: SW-620 colon
RXF 393 renal = system: RXF 393 renal
SR leukemia = system: SR leukemia
RPMI-8226 leukemia = system: RPMI-8226 leukemia
CCRF-CEM leukemia = system: CCRF-CEM leukemia
NCI-H23 lung = system: NCI-H23 lung
MDA-MB-231 breast = system: MDA-MB-231 breast
MCF7 breast = system: MCF7 breast
UO-31 renal = system: UO-31 renal
M14 melanoma = system: M14 melanoma
UACC-257 melanoma = system: UACC-257 melanoma

Cn1ccnc1C(=O)/C=C/c1ccc(CNC(=O)c2ccc(S(F)(F)(F)(F)F)cc2)cc1
GI50 (OVCAR-5 ovarian): 4.48 µM
TGI (OVCAR-5 ovarian): 11.6 µM
GI50 (HCT-116 colon): 3.17 µM
TGI (HCT-116 colon): 7.36 µM
GI50 (SK-OV-3 ovarian): 7.7 µM
TGI (SK-OV-3 ovarian): > 25 µM
GI50 (SK-MEL-2 melanoma): 4.24 µM
TGI (SK-MEL-2 melanoma): 9.22 µM
GI50 (KM12 colon): 2800 nM
TGI (KM12 colon): 6.02 µM
GI50 (NCI-H460 lung): 3.34 µM
TGI (NCI-H460 lung): 9.53 µM
GI50 (OVCAR-4 ovarian): 3.64 µM
TGI (OVCAR-4 ovarian): 11.3 µM
GI50 (DU-145 prostate): 3.26 µM
TGI (DU-145 prostate): 6.6 µM
GI50 (SF-295 CNS): 3.6 µM
TGI (SF-295 CNS): 7.15 µM
GI50 (UACC-62 melanoma): 3.98 µM
TGI (UACC-62 melanoma): 9.1 µM
GI50 (A498 renal): 3.41 µM
TGI (A498 renal): 6.84 µM
GI50 (COLO 205 colon): 4.22 µM
TGI (COLO 205 colon): 9.07 µM
GI50 (EKVX NSCLC): 4.38 µM
TGI (EKVX NSCLC): 10.3 µM
GI50 (TK-10 renal): 4.38 µM
TGI (TK-10 renal): 9.15 µM
GI50 (SN12C renal): 5.74 µM
TGI (SN12C renal): 18.6 µM
GI50 (SF-539 CNS): 3.37 µM
TGI (SF-539 CNS): 7.04 µM
GI50 (786-0 renal): 4.09 µM
TGI (786-0 renal): 8.27 µM
GI50 (LOX IMVI melanoma): 1120 nM
TGI (LOX IMVI melanoma): 4.2 µM
GI50 (A549 NSCLC): 5.92 µM
TGI (A549 NSCLC): > 25 µM
GI50 (HS 578T breast): 5.45 µM
TGI (HS 578T breast): 21.4 µM
GI50 (T-47D breast): 4.32 µM
TGI (T-47D breast): 18.6 µM
GI50 (K-562 leukemia): 1050 nM
TGI (K-562 leukemia): > 25 µM
GI50 (SK-MEL-28 melanoma): 5.2 µM
TGI (SK-MEL-28 melanoma): 11.4 µM
GI50 (HOP-62 NSCLC): 4.31 µM
TGI (HOP-62 NSCLC): 9.55 µM
GI50 (SNB-75 CNS): 2120 nM
TGI (SNB-75 CNS): 5.41 µM
GI50 (IGROV1 ovarian): 3.76 µM
TGI (IGROV1 ovarian): 10.6 µM
GI50 (MALME-3M melanoma): 4.85 µM
TGI (MALME-3M melanoma): 12 µM
GI50 (SNB-19 CNS): 3.21 µM
TGI (SNB-19 CNS): 7.07 µM
GI50 (PC-3 prostate): 3.64 µM
TGI (PC-3 prostate): 10.3 µM
GI50 (HCC-2998 colon): 3.7 µM
TGI (HCC-2998 colon): 7.17 µM
GI50 (HT29 colon): 3.9 µM
TGI (HT29 colon): 8.68 µM
GI50 (HL-60(TB) leukemia): 4.87 µM
TGI (HL-60(TB) leukemia): 17.1 µM
GI50 (BT-549 breast): 3.49 µM
TGI (BT-549 breast): 7.63 µM
GI50 (SF-268 CNS): 3.44 µM
TGI (SF-268 CNS): 7.52 µM
GI50 (NCI/ADR-RES ovarian): 5.71 µM
TGI (NCI/ADR-RES ovarian): > 25 µM
GI50 (OVCAR-8 ovarian): 6.54 µM
TGI (OVCAR-8 ovarian): > 25 µM
GI50 (HOP-92 NSCLC): 4.38 µM
TGI (HOP-92 NSCLC): 12.1 µM
GI50 (ACHN renal): 4.23 µM
TGI (ACHN renal): 7.74 µM
GI50 (NCI-H226 lung): 5.84 µM
TGI (NCI-H226 lung): > 25 µM
GI50 (CAKI-1 renal): 3.26 µM
TGI (CAKI-1 renal): 6.9 µM
GI50 (MDA-MB-435): 5.76 µM
TGI (MDA-MB-435): 16.1 µM
GI50 (U251 CNS): 1450 nM
TGI (U251 CNS): 5.33 µM
GI50 (SK-MEL-5 melanoma): 4.57 µM
TGI (SK-MEL-5 melanoma): 8.52 µM
GI50 (NCI-H522 lung): 4.11 µM
TGI (NCI-H522 lung): 8.23 µM
GI50 (MOLT-4 leukemia): 5.53 µM
TGI (MOLT-4 leukemia): 22.5 µM
GI50 (HCT-15 colon): 1360 nM
TGI (HCT-15 colon): 6.49 µM
GI50 (SW-620 colon): 1660 nM
TGI (SW-620 colon): 5.85 µM
GI50 (RXF 393 renal): 3.53 µM
TGI (RXF 393 renal): 7.41 µM
GI50 (SR leukemia): 854 nM
TGI (SR leukemia): > 25 µM
GI50 (RPMI-8226 leukemia): 1300 nM
TGI (RPMI-8226 leukemia): 8.28 µM
GI50 (CCRF-CEM leukemia): 3.25 µM
TGI (CCRF-CEM leukemia): > 25 µM
GI50 (NCI-H23 lung): 3.02 µM
TGI (NCI-H23 lung): 7.69 µM
GI50 (MDA-MB-231 breast): 5.57 µM
TGI (MDA-MB-231 breast): 18.9 µM
GI50 (MCF7 breast): 868 nM
TGI (MCF7 breast): 4.79 µM
GI50 (UO-31 renal): 3.36 µM
TGI (UO-31 renal): 6.59 µM
GI50 (M14 melanoma): 4.58 µM
TGI (M14 melanoma): 9.4 µM
GI50 (UACC-257 melanoma): 5.73 µM
TGI (UACC-257 melanoma): 15.2 µM
